Laboratory results as given in PubChem BioAssay AID1963446 (Molecular Pharmacology Branch, DTP, NCI, 2024).

Tested on: 993429-296-R-J1-PDC complex spheroid growth, percent test/control
Experiment: Anticancer human tumor 993429-296-R-J1-PDC patient-derived uterine sarcoma cell line growth inhibition [Asc]
Settings: for IC50: curve of first compound; for viability, T/C: stronger effect = lower value
Outline: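 Complex spheroids combining tumor cells with HUVEC endothelial cells and human MSCs, at 37 degrees C, 5% CO2; agents tested alone or combined, half-log dilutions from at or near clinical Cmax, or 10 microM if Cmax unknown.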
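Also: spheroids exposed to compounds for seven days.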

NC1CCC(NC2CC2c2ccccc2)CC1 (stereo not given) + CNC(C)C(=O)NC1CN(S(=O)(=O)c2cccc(S(=O)(=O)N3CCC4CCC(C(=O)NC(c5ccccc5)c5ccccc5)N4C(=O)C(NC(=O)C(C)NC)C3)c2)CCC2CCC(C(=O)NC(c3ccccc3)c3ccccc3)N2C1=O
IC50 (second compound 0.01 µM): > 100 nM
IC50 (second compound 0.0316 µM): > 100 nM
IC50 (second compound 0.1 µM): > 100 nM
IC50 (second compound 0.316 µM): > 100 nM
IC50 (second compound 1 µM): < 0.316 nM
viability, T/C (second compound 0.01 µM, first compound 0.000316 µM): 63.9%
viability, T/C (second compound 0.01 µM, first compound 0.001 µM): 62.7%
viability, T/C (second compound 0.01 µM, first compound 0.00316 µM): 57.3%
viability, T/C (second compound 0.01 µM, first compound 0.01 µM): 63.6%
viability, T/C (second compound 0.01 µM, first compound 0.0316 µM): 57.8%
viability, T/C (second compound 0.01 µM, first compound 0.1 µM): 63.4%
viability, T/C (second compound 0.0316 µM, first compound 0.000316 µM): 53.3%
viability, T/C (second compound 0.0316 µM, first compound 0.001 µM): 56.3%
viability, T/C (second compound 0.0316 µM, first compound 0.00316 µM): 48.5%
viability, T/C (second compound 0.0316 µM, first compound 0.01 µM): 46.5%
viability, T/C (second compound 0.0316 µM, first compound 0.0316 µM): 57.7%
viability, T/C (second compound 0.0316 µM, first compound 0.1 µM): 57.9%
viability, T/C (second compound 0.1 µM, first compound 0.000316 µM): 53.1%
viability, T/C (second compound 0.1 µM, first compound 0.001 µM): 53.5%
viability, T/C (second compound 0.1 µM, first compound 0.00316 µM): 58.6%
viability, T/C (second compound 0.1 µM, first compound 0.01 µM): 54.9%
viability, T/C (second compound 0.1 µM, first compound 0.0316 µM): 58.3%
viability, T/C (second compound 0.1 µM, first compound 0.1 µM): 56%
viability, T/C (second compound 0.316 µM, first compound 0.000316 µM): 59.7%
viability, T/C (second compound 0.316 µM, first compound 0.001 µM): 51.5%
viability, T/C (second compound 0.316 µM, first compound 0.00316 µM): 48.1%
viability, T/C (second compound 0.316 µM, first compound 0.01 µM): 50.2%
viability, T/C (second compound 0.316 µM, first compound 0.0316 µM): 53.2%
viability, T/C (second compound 0.316 µM, first compound 0.1 µM): 49.8%
viability, T/C (second compound 1 µM, first compound 0.000316 µM): 45.9%
viability, T/C (second compound 1 µM, first compound 0.001 µM): 41.7%
viability, T/C (second compound 1 µM, first compound 0.00316 µM): 39.7%
viability, T/C (second compound 1 µM, first compound 0.01 µM): 41.1%
viability, T/C (second compound 1 µM, first compound 0.0316 µM): 47.9%
viability, T/C (second compound 1 µM, first compound 0.1 µM): 28.1%

NC(=O)C(=Cn1cnc(-c2cc(C(F)(F)F)cc(C(F)(F)F)c2)n1)c1cncnc1 + Cc1c(S(C)(=O)=O)c(-c2cc(F)cc(N3CCN(c4ccc(NS(=O)(=O)c5ccc(NC(CCN6CCC(C(=O)OCCCP(=O)(O)O)CC6)CSc6ccccc6)c(S(=O)(=O)C(F)(F)F)c5)cc4)CC3)c2)c(-c2ccc(Cl)cc2)n1C(C)C
IC50 (second compound 0.1 µM): 7.94 nM
IC50 (second compound 0.316 µM): 5.62 nM
IC50 (second compound 1 µM): < 0.949 nM
IC50 (second compound 3.16 µM): 0.989 nM
IC50 (second compound 10 µM): 9.35 nM
viability, T/C (second compound 0.1 µM, first compound 0.000949 µM): 79.2%
viability, T/C (second compound 0.1 µM, first compound 0.003 µM): 63%
viability, T/C (second compound 0.1 µM, first compound 0.00949 µM): 50.8%
viability, T/C (second compound 0.1 µM, first compound 0.03 µM): 17.5%
viability, T/C (second compound 0.1 µM, first compound 0.0949 µM): 5.75%
viability, T/C (second compound 0.1 µM, first compound 0.3 µM): 1.24%
viability, T/C (second compound 0.316 µM, first compound 0.000949 µM): 67%
viability, T/C (second compound 0.316 µM, first compound 0.003 µM): 59.9%
viability, T/C (second compound 0.316 µM, first compound 0.00949 µM): 41.4%
viability, T/C (second compound 0.316 µM, first compound 0.03 µM): 13.1%
viability, T/C (second compound 0.316 µM, first compound 0.0949 µM): 2.18%
viability, T/C (second compound 0.316 µM, first compound 0.3 µM): 0.54%
viability, T/C (second compound 1 µM, first compound 0.000949 µM): 48.8%
viability, T/C (second compound 1 µM, first compound 0.003 µM): 48.6%
viability, T/C (second compound 1 µM, first compound 0.00949 µM): 32.4%
viability, T/C (second compound 1 µM, first compound 0.03 µM): 9.81%
viability, T/C (second compound 1 µM, first compound 0.0949 µM): 1.61%
viability, T/C (second compound 1 µM, first compound 0.3 µM): 0.15%
viability, T/C (second compound 3.16 µM, first compound 0.000949 µM): 50.8%
viability, T/C (second compound 3.16 µM, first compound 0.003 µM): 35.8%
viability, T/C (second compound 3.16 µM, first compound 0.00949 µM): 24.6%
viability, T/C (second compound 3.16 µM, first compound 0.03 µM): 11.9%
viability, T/C (second compound 3.16 µM, first compound 0.0949 µM): 2.12%
viability, T/C (second compound 3.16 µM, first compound 0.3 µM): 0.26%
viability, T/C (second compound 10 µM, first compound 0.000949 µM): 75.6%
viability, T/C (second compound 10 µM, first compound 0.003 µM): 71.1%
viability, T/C (second compound 10 µM, first compound 0.00949 µM): 49.9%
viability, T/C (second compound 10 µM, first compound 0.03 µM): 13.7%
viability, T/C (second compound 10 µM, first compound 0.0949 µM): 1.63%
viability, T/C (second compound 10 µM, first compound 0.3 µM): 0.26%

C=CC(=O)N1CCN(c2nc(=O)n(-c3c(C)ccnc3C(C)C)c3nc(-c4c(O)cccc4F)c(F)cc23)C(C)C1 (stereo not given) + CCN1C(C(=O)NC23CCC(C(=O)O)(CC2)CC3)C(c2cccc(Cl)c2F)C2(C(=O)Nc3cc(Cl)ccc32)C12CCCCC2
IC50 (second compound 0.03 µM): > 10000 nM
IC50 (second compound 0.0949 µM): > 10000 nM
IC50 (second compound 0.3 µM): > 10000 nM
IC50 (second compound 0.949 µM): > 10000 nM
IC50 (second compound 3 µM): > 10000 nM
viability, T/C (second compound 0.03 µM, first compound 0.0316 µM): 96.1%
viability, T/C (second compound 0.03 µM, first compound 0.1 µM): 101%
viability, T/C (second compound 0.03 µM, first compound 0.316 µM): 108%
viability, T/C (second compound 0.03 µM, first compound 1 µM): 86.2%
viability, T/C (second compound 0.03 µM, first compound 3.16 µM): 114%
viability, T/C (second compound 0.03 µM, first compound 10 µM): 76.1%
viability, T/C (second compound 0.0949 µM, first compound 0.0316 µM): 102%
viability, T/C (second compound 0.0949 µM, first compound 0.1 µM): 106%
viability, T/C (second compound 0.0949 µM, first compound 0.316 µM): 103%
viability, T/C (second compound 0.0949 µM, first compound 1 µM): 106%
viability, T/C (second compound 0.0949 µM, first compound 3.16 µM): 96.5%
viability, T/C (second compound 0.0949 µM, first compound 10 µM): 70.5%
viability, T/C (second compound 0.3 µM, first compound 0.0316 µM): 88.8%
viability, T/C (second compound 0.3 µM, first compound 0.1 µM): 102%
viability, T/C (second compound 0.3 µM, first compound 0.316 µM): 102%
viability, T/C (second compound 0.3 µM, first compound 1 µM): 106%
viability, T/C (second compound 0.3 µM, first compound 3.16 µM): 107%
viability, T/C (second compound 0.3 µM, first compound 10 µM): 85.7%
viability, T/C (second compound 0.949 µM, first compound 0.0316 µM): 102%
viability, T/C (second compound 0.949 µM, first compound 0.1 µM): 91.2%
viability, T/C (second compound 0.949 µM, first compound 0.316 µM): 128%
viability, T/C (second compound 0.949 µM, first compound 1 µM): 100%
viability, T/C (second compound 0.949 µM, first compound 3.16 µM): 94.9%
viability, T/C (second compound 0.949 µM, first compound 10 µM): 78.3%
viability, T/C (second compound 3 µM, first compound 0.0316 µM): 100%
viability, T/C (second compound 3 µM, first compound 0.1 µM): 87.6%
viability, T/C (second compound 3 µM, first compound 0.316 µM): 97.9%
viability, T/C (second compound 3 µM, first compound 1 µM): 96.3%
viability, T/C (second compound 3 µM, first compound 3.16 µM): 90.4%
viability, T/C (second compound 3 µM, first compound 10 µM): 77.9%
